According to PMC4266366 (Medical Science Monitor : International Medical Journal of …, 2014):

Tested on: BACE expression in transfected INR-32 human neuroblastoma cells
Assay: Selection of BACE1 siRNAs: inhibition of BACE expression in transfected cells
Format: cell-based
Conditions: BACE1 siRNA (75 pmoles) with Oligofectamin reagent

## siRNA A5 3: siRNA A5 3 - 3′GCAAGGAGUACAACUAUGAUU 5′, 3′GGAGGGAGCAUGAUCAUUGUU5′ (chemistry not given here)
  inhibition of BACE expression: 86.5%
